{
  "source": "patent US20210236539A1",
  "about": "“METHOD OF PROPHYLAXIS OF ZIKA VIRUS INFECTION” (priority 2016, published 2021)",
  "key": {"West Nile Fever virus": {"system": "West Nile Fever virus", "assay": "Activity against West Nile Fever virus (DSP0114), 4 concentration assay", "format": "cell-based", "procedure": "(§1) The activity of dendrimeric compounds against Dengue virus (D) and West Nile Fever virus (WNF) was tested.\na) The compound [BHAlys][Lys]16[CONH-Ph-3,5-(SO3Na)2]32 (SPL compound 7674) was tested for activity against West Nile Fever virus (DSP0114) (the compound has a sulfonic acid- or sulfonate-containing moiety which is\nA 4 concentration assay was used. The positive control was interferon-alpha."}, "Dengue Type 2 virus": {"system": "Dengue Type 2 virus", "assay": "Activity against Dengue Type 2 virus (DSP0196)", "format": "cell-based", "procedure": "as §1\nb) The compound [BHAlys] [Lys]16 [CSNH-4-Ph(SO3Na)]32 (SPL compound 2792) was tested for activity against Dengue Type 2 virus (DSP0196). (the compound has a sulfonic acid- or sulfonate-containing moiety which is […]"}},
  "data": [
    {"substance": "[BHAlys][Lys]16[CONH-Ph-3,5-(SO3Na)2]32 [SPL compound 7674]", "values": [
      {"measurement": "activity against West Nile Fever virus (in words)", "setting": "West Nile Fever virus", "value": "not active"},
      {"measurement": "EC50 NR", "setting": "West Nile Fever virus; West Nile Fever virus, NR readout", "value": 34, "unit": "µg/mL"},
      {"measurement": "EC50 VIS", "setting": "West Nile Fever virus; West Nile Fever virus, VIS readout", "value": 22, "unit": "µg/mL"}
    ]},
    {"substance": "[BHAlys] [Lys]16 [CSNH-4-Ph(SO3Na)]32 [SPL compound 2792]", "values": [
      {"measurement": "activity against Dengue Type 2 virus (in words)", "setting": "Dengue Type 2 virus", "value": "not active"},
      {"measurement": "EC50 NR", "setting": "Dengue Type 2 virus; Dengue Type 2 virus, NR readout", "value": 50.3, "unit": "µg/mL"},
      {"measurement": "EC50 VIS", "setting": "Dengue Type 2 virus; Dengue Type 2 virus, VIS readout", "value": "> 100", "unit": "µg/mL"}
    ]}
  ]
}
